Assay results: patent EP0078757A1, “Imines of 2-(4-phenyl-piperazinylethyl) anilines, process for their preparation and their use in medicine” (CORTIAL S.A., priority 1981, dated 1983)
Where two headings read alike, the source gives them in different places.

What was measured:
[1] = system: anaphylaxie passive cutanée; test: Passive cutaneous anaphylaxis test in rats; type: in vivo, rats mâles Sprague Dawley; conditions: for ED50: read-out: DE 50 voie po
Procedure: L'activité antiallergique a été déterminée dans le test de l'anaphylaxie passive cutanée de la façon suivante. On administre à des rats mâles Sprague Dawley par voie intradermique 0,1 ml de sérum riche en IgE. Ce sérum a été fabriqué en sensibilisant des rats Sprague-Dawley par une injection ip d'ovalbumine et de suspension de Bordetella pertusis suivie 20 j après par une nouvelle injection d'ovalbumine. 24 heures après administration du sérum on injecte par voie iv 0,5 ml d'une solution contenant 8,25 mg/kg d'ovalbumine et 26,4 mg/kg de bleu d'Evans dans un tampon pH 7,05. Au bout de 30 mn les animaux sont sacrifiés; chaque papule est découpée, pesée et mise à incuber pendant 4 j à 37°C dans 15 g de formamide. La quantité de bleu d'Evans contenue dans chaque papule est déterminée par la mesure de la densité optique du mélange. Le produit à tester est administré par voie orale ou intrapéritonéale en suspension homogène en présence de tween 80, 10 mn avant l'injection déclenchante. Son activité est appréciée par le pourcentage de diminution de la quantité de bleu d'Evans ayant diffusé dans la papule. Les DE 50 de certains produits de la présente invention sont indiquées dans le tableau V.

souris Swiss = test: Oral (intragastric) toxicity, mortality in mice; type: in vivo; conditions: mouse, solvent as in the source
From the text: La mortalité induite par ces substances a été déterminée chez la souris Swiss exempte d'organismes pathogènes spécifiques. Les animaux sont stabulés en salle climatisée 24 à 48 heures avant le début de l'expérimentation. Les substances sont administrées soit par voie intragastrique en solution dans de l'huile d'olive ou du tween, soit par voie intrapéritonéale en solution dans du tween. Les résultats sont exprimés dans les tableaux I et II par le pourcentage de mortalité en fonction de la dose administrée ou par la dose induisant 50 % de mortalité (DL 50) déterminée par la méthode de Bliss.

motilité chez la souris = test: Motility (actimeter) in mice, sedative effect; type: in vivo; conditions: ip route, mouse, Litchfield Wilcoxon method
From the text: L'effet des substances sur la motilité est appréciée chez la souris en utilisant un actimètre. Les animaux sont placés dans la cage d'activométrie et à partir du nombre de déplacements enregistrés par l'appareil,on obtient pour chaque dose considérée le pourcentage de l'effet observé par rapport au lot témoin. Ces pourcentages sont reportés sur un papier à l'échelle log-probit et la méthode de Litchfield Wilcoxon permet de calculer la dose efficace 50 sédative. Le tableau VI donne les DE 50 sédatives pour un certain nombre de produits faisant l'objet de l'invention.

[2] = oral route, rat, given 10 min before challenge, decrease of Evans blue in the papule, limits in brackets

`CN(C)CCCN1c2ccccc2Sc2ccc(Cl)cc21` [Chlorpromazine, reference compound] gave an ED50 ([1]; Rattus norvegicus, po) of 4.9 mg/kg.
`CC(CN1c2ccccc2Sc2ccccc21)N(C)C` (stereo not shown) [Prométhazine, reference compound] gave an ED50 [1, 2] of 2.9 mg/kg.
With “(((trifluorométhyl-3 phényl)-4 pipérazinyl)-2 éthyl)-6 N-pyridylidène-3 benzodioxol-1,3 yl-5 amine [COR 3415]” the “DE 50 voie po” value [1, 2] was 20 mg/kg, the “% de mortalité en fonction de la dose exprimée en mg/kg” value (souris Swiss; dose 500 mg/kg) was 0% and the “% de mortalité en fonction de la dose exprimée en mg/kg” value (souris Swiss; dose 750 mg/kg) was 50%. For the same compound, the “% de mortalité en fonction de la dose exprimée en mg/kg” value (souris Swiss; dose 1000 mg/kg) was 60% and the “% de mortalité en fonction de la dose exprimée en mg/kg” value (souris Swiss; dose 2000 mg/kg) was 70%.
“(phényl-4pipérazinyléthyl)-2 N-pyridylidène-3 aniline [COR 3412]” was tested, and the “DE 50 sédation” value (motilité chez la souris) was 4 mg/kg, the “DE 50 voie ip” value ([1]; intraperitoneal route, rat, given 10 min before challenge, decrease of Evans blue in the papule, limits in brackets) was 7,52 (3,31 - 17,38) mg/kg and the “DE 50 voie po” value [1, 2] was 11,9 (7,9 - 18,2) mg/kg.
